Columns and labels:
[1] = test system: cisplatin-induced sarcopenia mouse model; test: Leg weight and tibialis anterior (TA) muscle mass on day 42, cisplatin-induced skeletal muscle wasting; format: in vivo, mice (C57BL/6); details: vs cisplatin group
Method: In order to confirm an effect of a Magnolia officinalis extract on cisplatin-induced skeletal muscle wasting, the leg weight and tibialis anterior (TA) muscle mass of each group were measured on day 42 of the experiment.

[2] = test system: cisplatin-induced sarcopenia mouse model; test: Grip strength (forelimb and all limbs) by digital force gauge; format: in vivo, mice (C57BL/6); details: M.C 100 and 200 mg/kg; magnolol 10 mg/kg i.p.
Method: To determine the effect of the Magnolia officinalis extract on cisplatin-induced grip strength reduction, muscle strength of all limbs and muscle strength of forelimb were measured using a digital force gauge (DS2-5N; IMADA Inc., Northbrook, IL, USA). The muscle strength was measured by pulling the mouse's tail downward 5times and recording the peak tension when the mouse released its foot, and repeated 3 times at 10-minute intervals, and the average of 5 values was used for calculation.

[3] = test system: cisplatin-induced sarcopenia mouse model
Method: Specifically, mice (C57BL/6, 7 to 8 weeks old) (Jackson Laboratories, Raon Bio, Gyeonggi) were randomly caged and raised in a regulated environment with free access to food and water with a 12-hour light/dark cycle, and then on days 1 to 5 and days 26 to 30, cisplatin (Sigma-Aldrich, P4394; St. Louis, MO, USA) (2.5 mg/kg) dissolved at 1 mg/mL in physiological saline was injected intraperitoneally once daily (sarcopenia mouse model), M.C (50, 100 and 200 mg/kg) were administered orally every 3 days (total of 12 times).

[4] = test system: cells expressing both CD68 and IGF-1; test: Immunohistochemistry of CD68 and IGF-1 in TA muscle sections; format: in vivo, mice (C57BL/6); details: per image area
Method: It was confirmed whether […], which shifted the polarization of a macrophage phenotype from M2a to M2c (macrophages involved in extracellular matrix remodeling and muscle healing), and the number of macrophages were affected in skeletal muscle by administration of a Magnolia officinalis extract. Specifically, the TA muscle tissue sections of Example 4-3 were incubated overnight with a primary antibody, rat anti-mouse CD68 antibody (1:250; MCA1957GA; Bio-Rad, Contra Costa County, CA, USA) and rabbit anti-mouse IGF-1 antibody (1:500; 40657; Abcam, Cambridge, UK), and then incubated for 30 minutes with a secondary antibody, Alexa Fluor 488-conjugated goat anti-rat immunoglobulin IgG (A11006; Invitrogen, Carls-bad, CA, USA) and Alexa Fluor 594-conjugated goat anti-rabbit IgG (A32740; Invitrogen, Carlsbad, CA, USA). Thereafter, the sections were mounted using mounting media containing 4′,6-diamidino-2-phenylindole (DAPI) (H-1200, Vector, Torrance, CA, USA), and then imaged under a confocalator microscope (FV10C-PSU; Olympus Corporation, Tokyo, Japan). In the captured images, the numbers of IGF-I (red), CD68 (macrophage) (green), and DAPI (blue) positive cells per image area were measured in at least five random fields.

[5] = test system: mouse colon cancer cell line CT26; test: Anti-tumor activity of cisplatin in the CT26 colon cancer-bearing mouse model; format: in vivo; details: cisplatin alone; CT26 s.c. 3×10^5 per mouse
Method: To confirm whether administration of the Magnolia officinalis extract interfered with the anti-tumor activity of cisplatin, a mouse colon cancer cell line CT26 (Korean Cell Line Bank, 80009; Seoul, Korea) was injected subcutaneously at 3×10^5 per mouse to fabricate a colon cancer-bearing mouse model, and then treated with cisplatin or cisplatin+Magnolia officinalis extract (200 mg/kg), and the size (volume) and weight of tumor were measured every 3 days.

`C=CCc1ccc(O)c(-c2cc(CC=C)ccc2O)c1` [magnolol] was tested, and the “TA muscle mass reduction induced by cisplatin” value [1] was “significantly alleviated”, the “leg weight reduction induced by cisplatin” value [1] was “significantly alleviated” and the “pulling force power (grip strength) compared to the cisplatin administered group” value [2] was “significantly increased”. The “cisplatin-induced rapid weight loss (body weight, A of FIG. 2)” value ([3]; M.C 50, 100 and 200 mg/kg orally every 3 days (12 times), magnolol 10 mg/kg i.p. every 3 days, vs CIS+PBS) was “significantly alleviated”, the “changes in weight on the last and first days (B of FIG. 2)” value ([3]; M.C orally or magnolol 10 mg/kg i.p. vs cisplatin group) was “significant reduction in weight loss” and the “number of cells expressing both CD68 and IGF-1” value [4] was “increased”.
With `N.N.[Cl][Pt][Cl]` [cisplatin] the “tumor growth (size and weight)” value [5] was “significantly reduced tumor growth”.
